Assay results published in ChEMBL document CHEMBL1909046, “DrugMatrix in vitro pharmacology data”.

Assays:
[1] = molecular target: T1, C-X-C chemokine receptor type 2 (Homo sapiens, UniProt P25025); assay type: cell membranes, Membrane; settings: cho-k1; note: in other assays of this panel Not Active means under 50% inhibition at 10 µM
T1 sequence (P25025 whole entry): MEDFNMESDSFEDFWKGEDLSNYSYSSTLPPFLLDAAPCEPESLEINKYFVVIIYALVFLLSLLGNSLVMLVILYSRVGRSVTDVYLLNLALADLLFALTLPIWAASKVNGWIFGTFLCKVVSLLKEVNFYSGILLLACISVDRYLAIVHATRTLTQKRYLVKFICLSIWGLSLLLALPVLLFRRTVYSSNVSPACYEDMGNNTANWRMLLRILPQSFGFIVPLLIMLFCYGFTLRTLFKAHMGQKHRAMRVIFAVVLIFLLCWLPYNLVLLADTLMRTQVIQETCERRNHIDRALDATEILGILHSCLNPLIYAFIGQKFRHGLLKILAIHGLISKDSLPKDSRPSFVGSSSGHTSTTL

[2] = molecular target: Beta-1 adrenergic receptor (Homo sapiens, UniProt P08588); assay: DRUGMATRIX: Adrenergic beta1 radioligand binding (ligand: [125I] Cyanopindolol); assay type: cell membranes, CHO-K1, Membrane; settings: cho-k1; Not Active = under 50% inhibition at 10 µM
Sequence of Beta-1 adrenergic receptor (P08588 whole entry): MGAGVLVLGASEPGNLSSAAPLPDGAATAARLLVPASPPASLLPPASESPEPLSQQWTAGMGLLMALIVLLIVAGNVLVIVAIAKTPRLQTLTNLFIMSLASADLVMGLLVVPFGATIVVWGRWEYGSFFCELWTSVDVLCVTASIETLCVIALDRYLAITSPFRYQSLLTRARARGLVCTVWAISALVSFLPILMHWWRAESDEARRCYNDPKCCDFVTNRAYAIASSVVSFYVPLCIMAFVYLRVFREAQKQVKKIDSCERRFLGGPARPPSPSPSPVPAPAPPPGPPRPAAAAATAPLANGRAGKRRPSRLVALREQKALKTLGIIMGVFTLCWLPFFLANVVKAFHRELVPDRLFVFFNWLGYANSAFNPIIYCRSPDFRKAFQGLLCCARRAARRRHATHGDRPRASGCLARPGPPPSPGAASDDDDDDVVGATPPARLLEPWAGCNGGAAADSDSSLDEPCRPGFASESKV

[3] = DRUGMATRIX: beta-Lactamase enzyme inhibition (substrate: Nitrocefin); set-up: species or system Bacillus cereus; settings: Not Active = under 50% inhibition at 10 µM
[4] = DRUGMATRIX: GABAA, Chloride Channel, TBOB radioligand binding (ligand: [3H] TBOB); assay type: cell membranes, Rattus norvegicus, Wistar, Cerebral cortex, Membrane; settings: Not Active = under 50% inhibition at 10 µM
[5] = molecular target: T2, Neuropeptide Y receptor type 1 (Homo sapiens, UniProt P25929); assay type: cell membranes, Membrane; settings: sk-n-mc; note: in other assays of this panel Not Active means under 50% inhibition at 10 µM
T2 sequence (P25929 whole entry): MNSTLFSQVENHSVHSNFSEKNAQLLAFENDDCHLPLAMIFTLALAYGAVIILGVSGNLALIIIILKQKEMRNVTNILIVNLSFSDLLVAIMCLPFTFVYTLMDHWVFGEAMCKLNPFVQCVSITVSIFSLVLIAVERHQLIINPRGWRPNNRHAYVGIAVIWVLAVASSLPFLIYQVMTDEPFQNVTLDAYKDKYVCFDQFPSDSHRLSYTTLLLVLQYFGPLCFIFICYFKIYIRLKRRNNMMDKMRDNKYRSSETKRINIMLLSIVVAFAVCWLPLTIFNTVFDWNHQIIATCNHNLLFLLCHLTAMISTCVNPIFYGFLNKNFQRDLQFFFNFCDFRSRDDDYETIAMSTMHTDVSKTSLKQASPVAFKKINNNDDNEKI

[6] = molecular target: Substance-P receptor (Homo sapiens, UniProt P25103); assay type: cell membranes, Membrane; settings: cho; note: in other assays of this panel Not Active means under 50% inhibition at 10 µM
Sequence of Substance-P receptor (P25103 whole entry): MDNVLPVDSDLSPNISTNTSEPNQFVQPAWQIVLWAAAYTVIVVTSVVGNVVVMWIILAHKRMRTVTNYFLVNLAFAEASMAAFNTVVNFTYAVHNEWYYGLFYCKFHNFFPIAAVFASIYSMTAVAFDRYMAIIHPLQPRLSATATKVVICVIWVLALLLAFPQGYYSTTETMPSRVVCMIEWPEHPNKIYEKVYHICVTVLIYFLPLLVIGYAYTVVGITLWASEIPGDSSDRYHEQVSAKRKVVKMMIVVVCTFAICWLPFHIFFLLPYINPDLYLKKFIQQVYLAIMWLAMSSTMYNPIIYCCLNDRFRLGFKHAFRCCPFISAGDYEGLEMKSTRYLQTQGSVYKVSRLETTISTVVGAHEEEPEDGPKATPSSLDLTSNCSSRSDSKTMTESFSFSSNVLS

[7] = DRUGMATRIX: Glutamate, AMPA radioligand binding (ligand: [3H] AMPA); assay type: cell membranes, Rattus norvegicus, Wistar, Cerebral cortex, Membrane; settings: Not Active = under 50% inhibition at 10 µM
[8] = DRUGMATRIX: Potassium Channel [KATP] radioligand binding (ligand: [3H] Glyburide); assay type: cell membranes, Membrane; settings: hit-t15; Not Active = under 50% inhibition at 10 µM
[9] = molecular target: T3, Cytochrome P450 2A6 (Homo sapiens, UniProt P11509); settings: bti-tn-5b1-4; note: in other assays of this panel Not Active means under 50% inhibition at 10 µM
T3 sequence (P11509 whole entry): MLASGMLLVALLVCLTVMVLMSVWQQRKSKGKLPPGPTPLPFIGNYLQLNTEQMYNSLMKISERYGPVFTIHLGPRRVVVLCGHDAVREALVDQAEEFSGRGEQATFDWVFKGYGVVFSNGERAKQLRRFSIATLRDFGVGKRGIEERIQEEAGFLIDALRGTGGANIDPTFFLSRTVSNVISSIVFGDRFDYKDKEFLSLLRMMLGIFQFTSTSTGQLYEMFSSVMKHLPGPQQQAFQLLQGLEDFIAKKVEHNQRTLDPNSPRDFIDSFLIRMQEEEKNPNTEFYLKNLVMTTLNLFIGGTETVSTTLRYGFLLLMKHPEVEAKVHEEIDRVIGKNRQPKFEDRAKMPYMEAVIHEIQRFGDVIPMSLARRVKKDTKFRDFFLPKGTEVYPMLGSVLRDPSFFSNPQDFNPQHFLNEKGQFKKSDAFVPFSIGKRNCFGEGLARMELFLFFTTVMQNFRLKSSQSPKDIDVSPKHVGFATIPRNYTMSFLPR

[10] = molecular target: Platelet-activating factor receptor (Homo sapiens, UniProt P25105); assay: biochemical; assay type: tissue-based; settings: platelet; note: in other assays of this panel Not Active means under 50% inhibition at 10 µM
Sequence of Platelet-activating factor receptor (P25105 whole entry): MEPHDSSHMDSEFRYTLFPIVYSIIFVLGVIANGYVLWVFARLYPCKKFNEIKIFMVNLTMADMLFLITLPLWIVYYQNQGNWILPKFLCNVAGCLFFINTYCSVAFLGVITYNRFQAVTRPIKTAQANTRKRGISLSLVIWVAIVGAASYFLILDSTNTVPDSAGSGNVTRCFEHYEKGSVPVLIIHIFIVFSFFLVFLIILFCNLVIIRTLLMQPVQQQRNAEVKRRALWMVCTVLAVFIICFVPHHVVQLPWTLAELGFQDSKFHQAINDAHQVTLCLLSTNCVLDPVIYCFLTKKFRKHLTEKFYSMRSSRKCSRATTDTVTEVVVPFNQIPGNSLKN

Nc1ccc(S(=O)(=O)Nc2ncccn2)cc1 [SULFADIAZINE]
Not Active: IC50 [1] | IC50 [2] | IC50 [3] | Ki [3] | IC50 [4] | Ki [4] | IC50 [5] | IC50 [6] | IC50 [7] | Ki [7] | IC50 [8] | Ki [8] | IC50 [9] | Ki [9] | IC50 [10]

COc1ncnc(NS(=O)(=O)c2ccc(N)cc2)c1OC [SULFADOXINE]
Not Active: IC50 [1] | IC50 [2] | IC50 [3] | Ki [3] | IC50 [4] | Ki [4] | IC50 [5] | IC50 [6] | IC50 [7] | Ki [7] | IC50 [8] | Ki [8] | IC50 [9] | Ki [9] | IC50 [10]

Nc1ccc(S(=O)(=O)Nc2nccs2)cc1 [SULFATHIAZOLE]
Not Active: IC50 [1] | IC50 [2] | IC50 [3] | Ki [3] | IC50 [4] | Ki [4] | IC50 [5] | IC50 [6] | IC50 [7] | Ki [7] | IC50 [8] | Ki [8] | IC50 [9] | Ki [9] | IC50 [10]

C[C@@H]1C[C@H]2[C@@H]3CCC4=CC(=O)C=C[C@]4(C)C3=CC[C@]2(C)[C@H]1C(=O)CN1CCN(c2cc(N3CCCC3)nc(N3CCCC3)n2)CC1 [TIRILAZAD]
Not Active: IC50 [1] | IC50 [2] | IC50 [3] | Ki [3] | IC50 [4] | Ki [4] | IC50 [5] | IC50 [6] | IC50 [7] | Ki [7] | IC50 [8] | Ki [8] | IC50 [9] | Ki [9] | IC50 [10]

NC[C@H]1O[C@H](O[C@H]2[C@H](O)[C@@H](O[C@H]3O[C@H](CO)[C@@H](O)[C@H](N)[C@H]3O)[C@H](N)C[C@@H]2N)[C@H](N)C[C@@H]1O [TOBRAMYCIN]
Not Active: IC50 [1] | IC50 [2] | IC50 [3] | Ki [3] | IC50 [4] | Ki [4] | IC50 [5] | IC50 [6] | IC50 [7] | Ki [7] | IC50 [8] | Ki [8] | IC50 [9] | Ki [9] | IC50 [10]

O=C(O)C(Cl)(Cl)Cl [TRICHLOROACETIC ACID]
Not Active: IC50 [1] | IC50 [2] | IC50 [3] | Ki [3] | IC50 [4] | Ki [4] | IC50 [5] | IC50 [6] | IC50 [7] | Ki [7] | IC50 [8] | Ki [8] | IC50 [9] | Ki [9] | IC50 [10]

CC(=O)O[C@H]1C[C@@H]2CC[C@@H]3[C@H](CC[C@@]4(C)[C@H]3C[C@H]([N+]3(C)CCCCC3)[C@@H]4OC(C)=O)[C@@]2(C)C[C@@H]1N1CCCCC1.[Br-] [VECURONIUM BROMIDE]
Not Active: IC50 [1] | IC50 [2] | IC50 [3] | Ki [3] | IC50 [4] | Ki [4] | IC50 [5] | IC50 [6] | IC50 [7] | Ki [7] | IC50 [8] | Ki [8] | IC50 [9] | Ki [9] | IC50 [10]

COc1cc(C(=O)NS(=O)(=O)c2ccccc2C)ccc1Cc1cn(C)c2ccc(NC(=O)OC3CCCC3)cc12 [ZAFIRLUKAST]
Not Active: IC50 [1] | IC50 [2] | IC50 [3] | Ki [3] | IC50 [4] | Ki [4] | IC50 [5] | IC50 [6] | IC50 [7] | Ki [7] | IC50 [8] | Ki [8] | IC50 [9] | Ki [9] | IC50 [10]

Cc1cn([C@H]2C[C@H](N=[N+]=[N-])[C@@H](CO)O2)c(=O)[nH]c1=O [ZIDOVUDINE]
Not Active: IC50 [1] | IC50 [2] | IC50 [3] | Ki [3] | IC50 [4] | Ki [4] | IC50 [5] | IC50 [6] | IC50 [7] | Ki [7] | IC50 [8] | Ki [8] | IC50 [9] | Ki [9] | IC50 [10]

STANNOUS FLUORIDE
Not Active: IC50 [1] | Ki [1] | IC50 [2] | Ki [2] | IC50 [3] | Ki [3] | IC50 [4] | Ki [4] | IC50 [5] | Ki [5] | IC50 [6] | Ki [6] | IC50 [7] | Ki [7] | IC50 [8] | Ki [8] | IC50 [9] | Ki [9] | IC50 [10] | Ki [10]
